{"source": "patent US8956622B2", "about": "“Peptidic antagonists of class III semaphorins/neuropilins complexes” (INSERM—Institut National de la Sante et de la Recherche …, priority 2005, dated 2015)", "key": {"[1]": {"system": "cortical axons collapses triggered by Sema3A", "test": "Cortical axons collapses triggered by Sema3A in neocortex explants", "assay_type": "cell-based, mouse", "conditions": "peptide 10^−8 M, Sema3A 100 ng/ml", "experimental": "The inhibitory axon growth property of Sema 3A is supposed to be linked to its induction capacity of growth cone collapses. To investigate the effect of the pTM-NRP1 peptide on the Sema 3A functional properties, the growth of cortical neurons was analyzed in the presence or not of Sema 3A and of pTM-NRP1 or pTM-NRP1^mut (NRP1 TM with a triple G→V mutation) peptides.\nLaminine/Poly-L-Lysine substrates have been made by adding 980 μL of Gey's balanced salt solution (GBSS, SIGMA) to 10 μL laminine (1 mg/ml, SIGMA) and to 10 μL poly-L-Lysine (10 mg/ml, SIGMA). Sterile coverslips have been placed in a big dish and added with substrate (100 μL). Then, ‘sandwiches’ have been prepared by covering each coverslip with a second one. After an incubation for at least 30 min at 37° C. under 5% CO2 in air, ‘sandwiches’ have been opened and each coverslip has been rinsed with deionized water. Explants have been cultured on dried coverslips.\nNeocortex fragments prepared from E15 mouse embryos (E1 determined as the first day of embryonic development by detection of vaginal plug) have been transferred on a tissue chopper disk. Tissue have been cut into 200×200 μm by rotating the disk by 90° after the first cut. Cortex cubes have been collected with a spatula and put into culture medium in a Petri dish. Two coverslips with substrate have been placed in a small Petri dish (50 mm diameter, FALCON). After adding 750 μl of culture medium, the coverslips should stay in the incubator for at least 10 minutes. Using a dissecting microscope, forty to fifty cortical explants have been collected in 20 μl culture medium and carefully placed onto the coverslips. After 15 min at room temperature, most explants have adhered to their substrate. 2250 μl of culture medium have been slowly added to each dish. Then, explants cultures have been kept at 37° C. under 5% CO2 in air.\nA radial outgrowth could be seen after 18-24 h in culture, and individual fibres and growth cones could have therefore been analyzed. Products tested on growth cones have been directly added in culture medium for 2 h: • purified Sema3A (100 ng/ml) prepared from conditioned medium of HEK293 cells stably expressing Sema3A. The purification was performed by using the anti-Flag system, SIGMA) • pTM-NRP1 (10^−8, 10^−9, 10^−10 and 10^−11 M), • 10^−8M mpTM-NRP1, • 10^−8M pTM-ErbB2w (SEQ ID NO. 18).\nAfter incubation, 4% formaldehyde has been directly added in culture medium (v/v) for 15min. Then the solution has been removed and replaced by 4% formaldehyde for 15 min."}, "[2]": {"system": "COS-1 cells expressing NRP1 and Plexin-A1", "test": "COS cellular collapses triggered by Sema3A", "assay_type": "cell-based", "conditions": "peptide 10^−9 M, 1 hour pre-incubation, Sema 3A 4 hours", "experimental": "Nevertheless, the artificial expression of NRP1 and Plexin-A1 in COS cells allows Sema 3A to trigger cellular collapses. To investigate the effect of the pTM-NRP1 peptide on the Sema3A functional properties, the shape of COS cells expressing NRP1 and Plexin-A1 was analyzed in the presence or not of Sema 3A and of pTM-NRP1 or pTM-NRP1^mut peptide.\nCOS-1 cells have been transfected by 1 μg of pBK-CMV (STRATAGENE) plasmids containing NRP1 and plexin-A1 coding sequences (provided by Pr. PUSCHEL; MUNSTER Universitat, Germany) with LIPOFECTAMINE 2000 (IN VITROGEN) according to the manufacturer's instructions in 6-well plates. Stably COS-1 transfected cells have been selected with 0.7% geneticine. Stably transfected COS-1 cells have been cultured on 12-well plates with previously poly-L-lysine-coated glass coverslips. Cells have been then incubated 1 hour with pTM-NRP1 or pTM-NRP1^mut peptide (10^−9M) at 37° C. The culture medium has been then removed and replaced by conditioned medium of HEK cells stably transfected or not with a construction expressing Sema 3A (100 μl/ml D-MEM) for 4 hours at 37° C. Finally, cells have been fixed with 2% formaldehyde for 30 minutes followed by 15 minutes in formaldehyde 4%. For each condition tested, about 400 cells have been analyzed."}, "NRP1 [3]": {"molecular_target": "T1, NRP1 (Homo sapiens, UniProt O14786)", "T1 construct": "mutations were introduced into the TM domain of a full length NRP1; expressed in transfected cells; host or cells: COS-1 cells, pBK-CMV plasmid (cDNA provided by Pr. Puschel)", "T1 sequence (O14786 22-923)": "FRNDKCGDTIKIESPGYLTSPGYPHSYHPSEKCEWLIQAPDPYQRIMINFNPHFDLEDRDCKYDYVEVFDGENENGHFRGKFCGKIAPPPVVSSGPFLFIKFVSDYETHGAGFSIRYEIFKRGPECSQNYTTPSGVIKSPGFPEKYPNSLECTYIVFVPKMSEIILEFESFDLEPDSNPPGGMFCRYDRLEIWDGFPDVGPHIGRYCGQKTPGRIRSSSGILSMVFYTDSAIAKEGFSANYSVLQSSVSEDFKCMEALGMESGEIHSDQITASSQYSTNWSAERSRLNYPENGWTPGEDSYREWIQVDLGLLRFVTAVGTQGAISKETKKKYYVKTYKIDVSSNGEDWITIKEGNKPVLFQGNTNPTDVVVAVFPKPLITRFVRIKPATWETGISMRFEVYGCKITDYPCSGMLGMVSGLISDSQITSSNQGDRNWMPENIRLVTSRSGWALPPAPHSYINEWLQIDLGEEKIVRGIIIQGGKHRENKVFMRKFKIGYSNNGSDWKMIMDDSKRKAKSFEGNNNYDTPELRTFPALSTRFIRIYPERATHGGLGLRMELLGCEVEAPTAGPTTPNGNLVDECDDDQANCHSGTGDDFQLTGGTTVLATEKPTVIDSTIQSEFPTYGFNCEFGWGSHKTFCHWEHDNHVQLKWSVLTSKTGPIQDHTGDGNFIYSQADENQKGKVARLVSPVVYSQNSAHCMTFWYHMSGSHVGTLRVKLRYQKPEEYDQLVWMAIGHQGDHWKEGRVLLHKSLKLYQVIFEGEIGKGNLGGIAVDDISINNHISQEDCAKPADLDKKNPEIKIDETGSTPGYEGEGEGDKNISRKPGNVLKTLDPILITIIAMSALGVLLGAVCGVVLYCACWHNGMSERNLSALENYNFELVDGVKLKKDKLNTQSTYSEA", "test": "AP-Sema3A binding to NRP1-expressing COS cells (optical density per cell)", "conditions": "peptide 10^−9 M, 1 hour pre-incubation", "experimental": "NRP1 expressing COS cells were incubated with AP-Sema3A, a fusion protein of Sema3A and the secreted alkaline phosphatase (BAGNARD et al., 1998).\nWild-type COS cells or NRP1-expressing COS cells (COS-NRP1) were cultured on 12-wells plates on poly-L-lysine-coated glass coverslips (0.005 mg/ml). After one-hour incubation with pTM-NRP1 or pTM-NRP1^mut (10^−9M) in serum-free medium at 37° C., the culture medium was replaced by conditioned medium containing alkaline phosphatase-coupled Sema3A (AP-Sema3A; BAGNARD et al., 1998) obtained from AP-Sema3A stably expressing HEK cells for 90 mn. Conditioned medium without semaphorin served as a control (obtained from non-transfected HEK). Cells were washed three times with PBS and fixed in 4% formaldehyde before transfer in a new dish. After three washes in PBS, the plate was warmed for 50 mn at 65° C. Cells were subsequently incubated with 1 ml of alkaline phosphatase substrate (NBT/BCIP, SIGMA) in the dark. After 45 mn, substrate was removed and glass coverslips were rinsed. Pictures were acquired with a conventional microscope and analyzed with AxioVision LE Zeiss software. For each condition tested, about 60 cells were analyzed to determine binding levels as a function of optical density. Statistical analysis was performed by using a Student's t test."}, "NRP1 [4]": {"molecular_target": "T2, NRP1 (Rattus norvegicus, UniProt Q9QWJ9)", "T2 construct": "Rat C6 glioma cells, which express semaphorin receptors; endogenous in cells; host or cells: rat C6 glioma cells", "test": "AP-Sema3A binding to its receptor NRP1 on C6 glioma cells (luminescence)", "conditions": "peptide 10^−12 M to 10^−10 M, 1 hour", "experimental": "In order to investigate the NRP1 transmembrane domain role in the linkage NRP1-class III semaphorins, the binding of the ligand Sema3A to its receptor NRP1 on glioma cells was measured in the presence or not of the transmembrane domain peptide of NRP1 (pTM-NRP1 peptide; SEQ ID NO. 1) or of a mutated peptide (mpTM-NRP1; SEQ ID NO. 20, […]). These pTM-NRP1 Peptides have been synthesized by automatic peptidic synthesis (Fmoc chemistry, APPLIED SYSTEM), and analyzed by mass spectrometry. Peptides purity has been estimated by RP-HPLC (BECKMAN) as higher than 90%.\nRat C6 glioma cells, which express semaphorin receptors, has been used to determine the binding capacity of AP-Sema3A, a secreted alkaline phosphatase version of Sema 3A (ADAMS et al., 1997, BAGNARD et al., 1998). These cells were grown and plated in MEM medium (GIBCO) with 10% foetal calf serum (PERBIO), glutamine 0.5 mM (GIBCO) and antibiotics: 100 U/ml penicillin and 100 μg/ml streptomycin (SIGMA).\nC6 Cells were cultured in 96-well plates and incubated with or without freshly diluted pTM-NRP1 or pTM-NRP1^mut peptides (10^−12 M to 10^−10 M) for 1 hour at 37° C. The culture medium has been then replaced by conditioned medium of HEK cells stably transfected with a construction expressing AP-Sema 3A (ADAMS et al., EMBO J., vol. 16(20), p: 6077-86, 1997; BAGNARD et al., 1998). Conditioned medium from HEK non transfected cells has been used as an internal control. The pTM-NRP1 Peptide has been synthesized by automatic peptidic synthesis (Fmoc chemistry, APPLIED SYSTEM), and analyzed by mass spectrometry. Peptides purity has been estimated by RP-HPLC (BECKMAN) as higher than 90%, the cells have been washed with PBS and incubated with 50 μl of alkaline phosphatase luminescent substrate (AMERSHAM). The luminescence has been read after 15 minutes with MICROLUMAT PLUS system (BERTHOLD TECHNOLOGIES) according to the manufacturer's instructions. Experiments were done 4 times for each peptide."}, "[5]": {"system": "VEGF165 signalling in C6 cells", "test": "VEGF165-induced migration of C6 tumour cell aggregates in 3D matrix (plasma clot)", "assay_type": "cell-based", "conditions": "VEGF165 50 ng/ml, peptide 10^−8 M", "experimental": "NRP1 is a receptor of VEGF (NEUFELD et al., Adv. Exp. Med. Biol., vol. 515, p: 81-90, 2002). We therefore verified that pTM-NRP1 can antagonize VEGF signalling in C6 cells. To this end, C6 tumour cell aggregates prepared as previously described (see BAGNARD et al., 1998; and NASARRE et al., Neoplasia, vol. 7, p: 180-189, 2005) were grown in the 3D matrix (plasma clot) and treated with VEGF165."}}, "data": [{"sequence": "SIISAVVGILLVVVLGVVFGILI [ErbB2 peptide, reference compound]", "values": [{"measurement": "effect on cortical axons collapses triggered by Sema3A", "setting": "[1]", "value": "no effect"}]}, {"sequence": "ILITIIAMSALVVLLVAVCVVVLYRKR [pTM-NRP1^mut, reference compound]", "values": [{"measurement": "effect on cortical axons collapses triggered by Sema3A", "setting": "[1]", "value": "did not block"}, {"measurement": "effect on cellular collapses of COS-1 cells triggered by Sema 3A", "setting": "[2]", "value": "did not block"}, {"measurement": "binding of AP-Sema3A to NRP1-expressing COS cells", "setting": "NRP1 [3]", "value": "did not block"}, {"measurement": "binding of AP-Sema3A to its receptor NRP1 on C6 cells", "setting": "NRP1 [4]", "value": "did not block"}, {"measurement": "VEGF165-dependent C6 cells migration out of aggregates", "setting": "[5]", "value": "not able to block"}]}]}
